Results taken from the supplement of paper PMC10307832.

Key:
Test in all cases: relative viability (nuclei count vs DMSO), 5 days (fraction); higher = more cells survive
[1] = compound: COC1=CC=C(C=C1)COC2=C(C=C(C=C2)CC3=CN=C(N=C3N)N)OC [GW-2580] + C[C@@H](Oc1cc(-c2cnn(C3CCNCC3)c2)cnc1N)c1c(Cl)ccc(F)c1Cl [Crizotinib] (partner 1 µM)
Outline: (§1)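 Relative viability is defined as nuclei in treated wells over nuclei in vehicle wells. Duplicate plates were run and medians reported. Lung cancer cell lines in 1536-well plates were dosed by pin tool one day after seeding, with one drug or with a fixed anchor-drug dose plus five library-drug doses (not always all listed) in √10 steps, and nuclei were counted after 5 days.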

[2] = compound: Cc1cnc(Nc2ccc(OCCN3CCCC3)cc2)nc1Nc1cccc(S(=O)(=O)NC(C)(C)C)c1 [Fedratinib] + O=C(CCCCCCC(=O)Nc1ccccc1)NO [Vorinostat] (partner 1 µM)
Outline: as §1

[3] = compound: COC1=CC=C(C=C1)COC2=C(C=C(C=C2)CC3=CN=C(N=C3N)N)OC [GW-2580] + CC(=O)Nc1cccc(-n2c(=O)n(C3CC3)c(=O)c3c(Nc4ccc(I)cc4F)n(C)c(=O)c(C)c32)c1 [Trametinib] (partner 0.02 µM)
Outline: as §1

[4] = compound: Cc1cnc(Nc2ccc(OCCN3CCCC3)cc2)nc1Nc1cccc(S(=O)(=O)NC(C)(C)C)c1 [Fedratinib] + Cc1nc(Nc2ncc(C(=O)Nc3c(C)cccc3Cl)s2)cc(N2CCN(CCO)CC2)n1 [Dasatinib] (partner 0.075 µM)
Outline: as §1

[5] = compound: COC1=CC=C(C=C1)COC2=C(C=C(C=C2)CC3=CN=C(N=C3N)N)OC [GW-2580] + Nc1ncn([C@H]2C[C@H](O)[C@@H](CO)O2)c(=O)n1 [Decitabine] (partner 2 µM)
Outline: as §1

Cell Line | relative viability ([1]; first compound 0.08 µM) | relative viability ([1]; first compound 0.8 µM) | relative viability ([1]; first compound 2.53 µM) | relative viability ([1]; first compound 8 µM) | relative viability ([2]; first compound 0.1 µM) | relative viability ([2]; first compound 0.3162 µM) | relative viability ([2]; first compound 1 µM) | relative viability ([3]; first compound 0.08 µM) | relative viability ([3]; first compound 0.8 µM) | relative viability ([3]; first compound 2.53 µM) | relative viability ([3]; first compound 8 µM) | relative viability ([4]; first compound 0.1 µM) | relative viability ([4]; first compound 0.3162 µM) | relative viability ([4]; first compound 1 µM) | relative viability ([5]; first compound 0.08 µM) | relative viability ([5]; first compound 0.8 µM) | relative viability ([5]; first compound 2.53 µM) | relative viability ([5]; first compound 8 µM)
NCI-H2023 | 0.61 | 0.829 | 0.59 | 0.623 | 0.826 | 0.626 | 0.547 | 0.523 | 0.639 | 0.541 | 0.577 | 0.614 | 0.476 | 0.394 | 0.22 | 0.239 | 0.222 | 0.296
NCI-H2009 | 1.05 | 1.05 | 1.07 | 1.01 | 0.639 | 0.696 | 0.695 | 0.284 | 0.262 | 0.266 | 0.273 | 0.232 | 0.241 | 0.185 | 0.415 | 0.427 | 0.378 | 0.482
